Target: T1, CRF1 receptors (Homo sapiens, UniProt P34998)
T1 construct: endogenous in cells; host or cells: IMR-32 cells, transformed with 2.5 µM 5'-bromo-2'-deoxyuridine for 10 days; membrane preparation
T1 sequence (P34998 24-415): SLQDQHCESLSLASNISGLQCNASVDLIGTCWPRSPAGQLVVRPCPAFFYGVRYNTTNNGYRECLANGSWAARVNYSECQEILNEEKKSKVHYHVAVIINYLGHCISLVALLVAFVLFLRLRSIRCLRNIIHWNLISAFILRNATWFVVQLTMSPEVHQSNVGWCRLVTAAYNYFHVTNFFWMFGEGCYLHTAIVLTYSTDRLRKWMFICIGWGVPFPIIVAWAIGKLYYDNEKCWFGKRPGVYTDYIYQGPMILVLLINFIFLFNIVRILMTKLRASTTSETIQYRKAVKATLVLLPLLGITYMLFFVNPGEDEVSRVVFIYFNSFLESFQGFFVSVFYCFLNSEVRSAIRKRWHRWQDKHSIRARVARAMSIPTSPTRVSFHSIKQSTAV
Assay: CRF1 receptor radioligand binding assay ([125I]-oCRF competition, IMR-32 cell membranes)
Conditions: IMR-32 cell membranes, [125I]-oCRF 100 pM; read-out: Ki (CRF-1R)
In short: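 Buffer: Tris pH 7.2 with MgCl2, BSA, Triton X-100, aprotinin, leupeptin; reaction stopped with ice-cold wash and filtered. Nonspecific binding set with 10 μM oCRF.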

Compound	Ki
CCN(Cc1c(C(F)(F)F)nc2n(-c3ccc(C(C)C)cc3Br)c3ccccc3n12)CC1CC1 [Example 190, [8-(2-Bromo-4-isopropyl-phenyl)-2-trifluoromethyl-8H-1,3a,8-triaza-cyclopenta[α]inden-3-ylmethyl]-cyclopropylmethyl-ethyl-amine]	< 1 µM
CC(C)c1ccc(-n2c3ccccc3n3c(CN(CC4CC4)CC(F)(F)C(F)(F)F)c(C(F)(F)F)nc23)c(Br)c1 [Example 191, [8-(2-Bromo-4-isopropyl-phenyl)-2-trifluoromethyl-8H-1,3a,8-triaza-cyclopenta[α]inden-3-ylmethyl]-cyclopropylmethyl-(2,2,3,3,3-pentafluoro-propyl)-amine]	< 1 µM
C=CCN(CC=C)Cc1c(C(F)(F)F)nc2n(-c3ccc(C(C)C)cc3Br)c3ccccc3n12 [Example 192, Diallyl-[8-(2-bromo-4-isopropyl-phenyl)-2-trifluoromethyl-8H-1,3a,8-triaza-cyclopenta[α]inden-3-ylmethyl]-amine]	< 1 µM
CCCN(CCc1ccccc1)Cc1c(C(F)(F)F)nc2n(-c3ccc(C(C)C)cc3Br)c3ccccc3n12 [Example 193, [8-(2-Bromo-4-isopropyl-phenyl)-2-trifluoromethyl-8H-1,3a,8-triaza-cyclopenta[α]inden-3-ylmethyl]-phenethyl-propyl-amine]	< 1 µM
CC(C)c1ccc(-n2c3ccccc3n3c(CN(CC4CCC4)CC(F)(F)F)c(C(F)(F)F)nc23)c(Br)c1 [Example 194, [8-(2-Bromo-4-isopropyl-phenyl)-2-trifluoromethyl-8H-1,3a,8-triaza-cyclopenta[α]inden-3-ylmethyl]-cyclobutylmethyl-(2,2,2-trifluoro-ethyl)-amine]	< 1 µM
CCCN(Cc1c(C(F)(F)F)nc2n(-c3ccc(C(C)C)cc3Br)c3ccccc3n12)CC1CCC1 [Example 195, [8-(2-Bromo-4-isopropyl-phenyl)-2-trifluoromethyl-8H-1,3a,8-triaza-cyclopenta[α]inden-3-ylmethyl]-cyclobutylmethyl-propyl-amine]	< 1 µM
CCN(CCc1ccccc1)Cc1c(C(F)(F)F)nc2n(-c3ccc(C(C)C)cc3Br)c3ccccc3n12 [Example 196, [8-(2-Bromo-4-isopropyl-phenyl)-2-trifluoromethyl-8H-1,3a,8-triaza-cyclopenta[α]inden-3-ylmethyl]-ethyl-phenethyl-amine]	< 1 µM
CCCN(CCC(F)(F)F)Cc1c(C(F)(F)F)nc2n(-c3ccc(C(C)C)cc3Br)c3ccccc3n12 [Example 197, [8-(2-Bromo-4-isopropyl-phenyl)-2-trifluoromethyl-8H-1,3a,8-triaza-cyclopenta[α]inden-3-ylmethyl]-propyl-(3,3,3-trifluoro-propyl)-amine]	< 1 µM
C=CCN(CCC)Cc1c(C(F)(F)F)nc2n(-c3ccc(C(C)C)cc3Br)c3ccccc3n12 [Example 198, Allyl-[8-(2-bromo-4-isopropyl-phenyl)-2-trifluoromethyl-8H-1,3a,8-triaza-cyclopenta[α]inden-3-ylmethyl]-propyl-amine]	< 1 µM
CC(C)c1ccc(-n2c3ccccc3n3c(CN(CCC(F)(F)F)Cc4ccc(F)cc4)c(C(F)(F)F)nc23)c(Br)c1 [Example 199, [8-(2-Bromo-4-isopropyl-phenyl)-2-trifluoromethyl-8H-1,3a,8-triaza-cyclopenta[α]inden-3-ylmethyl]-(4-fluoro-benzyl)-(3,3,3-trifluoro-propyl)-amine]	< 10 µM
CCCN(Cc1c(C(F)(F)F)nc2n(-c3ccc(C(C)C)cc3Br)c3ccccc3n12)CC(F)(F)F [Example 200, [8-(2-Bromo-4-isopropyl-phenyl)-2-trifluoromethyl-8H-1,3a,8-triaza-cyclopenta[α]inden-3-ylmethyl]-propyl-(2,2,2-trifluoro-ethyl)-amine]	< 10 µM
CC(C)c1ccc(-n2c3ccccc3n3c(CN(CCc4ccccc4)CC(F)(F)F)c(C(F)(F)F)nc23)c(Br)c1 [Example 201, [8-(2-Bromo-4-isopropyl-phenyl)-2-trifluoromethyl-8H-1,3a,8-triaza-cyclopenta[α]inden-3-ylmethyl]-phenethyl-(2,2,2-trifluoro-ethyl)-amine]	< 10 µM
CC(C)c1ccc(-n2c3ccccc3n3c(CN(CCC(F)(F)F)Cc4ccccc4)c(C(F)(F)F)nc23)c(Br)c1 [Example 202, Benzyl-[8-(2-bromo-4-isopropyl-phenyl)-2-trifluoromethyl-8H-1,3a,8-triaza-cyclopenta[α]inden-3-ylmethyl]-(3,3,3-trifluoro-propyl)-amine]	< 10 µM
CCCCN(CC)Cc1c(C(F)(F)F)nc2n(-c3ccc(C(C)C)cc3Br)c3ccccc3n12 [Example 203, [8-(2-Bromo-4-isopropyl-phenyl)-2-trifluoromethyl-8H-1,3a,8-triaza-cyclopenta[α]inden-3-ylmethyl]-butyl-ethyl-amine]	< 10 µM

More lines, now with the values ahead:

Ki	Compound
< 10 µM	CC(C)c1ccc(-n2c3ccccc3n3c(CN(CCC4CC4)CC(F)(F)F)c(C(F)(F)F)nc23)c(Br)c1 [Example 204, [8-(2-Bromo-4-isopropyl-phenyl)-2-trifluoromethyl-8H-1,3a,8-triaza-cyclopenta[α]inden-3-ylmethyl]-(2-cyclopropyl-ethyl)-(2,2,2-trifluoro-ethyl)-amine]
< 10 µM	CCCN(Cc1c(C(F)(F)F)nc2n(-c3ccc(C(C)C)cc3Br)c3ccccc3n12)CC(F)(F)C(F)(F)F [Example 205, [8-(2-Bromo-4-isopropyl-phenyl)-2-trifluoromethyl-8H-1,3a,8-triaza-cyclopenta[α]inden-3-ylmethyl]-(2,2,3,3,3-pentafluoro-propyl)-propyl-amine]
< 10 µM	CCCN(CCC)Cc1c(C(F)(F)F)nc2n(-c3ccc(C(C)C)cc3Br)c3ccccc3n12 [Example 206, [8-(2-Bromo-4-isopropyl-phenyl)-2-trifluoromethyl-8H-1,3a,8-triaza-cyclopenta[α]inden-3-ylmethyl]-dipropyl-amine]
< 10 µM	CCN(CCC1CC1)Cc1c(C(F)(F)F)nc2n(-c3ccc(C(C)C)cc3Br)c3ccccc3n12 [Example 207, [8-(2-Bromo-4-isopropyl-phenyl)-2-trifluoromethyl-8H-1,3a,8-triaza-cyclopenta[α]inden-3-ylmethyl]-(2-cyclopropyl-ethyl)-ethyl-amine]
< 10 µM	CCN(Cc1ccccc1)Cc1c(C(F)(F)F)nc2n(-c3ccc(C(C)C)cc3Br)c3ccccc3n12 [Example 208, Benzyl-[8-(2-bromo-4-isopropyl-phenyl)-2-trifluoromethyl-8H-1,3a,8-triaza-cyclopenta[α]inden-3-ylmethyl]-ethyl-amine]
< 10 µM	CCCN(Cc1ccccc1)Cc1c(C(F)(F)F)nc2n(-c3ccc(C(C)C)cc3Br)c3ccccc3n12 [Example 209, Benzyl-[8-(2-bromo-4-isopropyl-phenyl)-2-trifluoromethyl-8H-1,3a,8-triaza-cyclopenta[α]inden-3-ylmethyl]-propyl-amine]
< 0.1 µM	Cc1cc(C)c(-n2c3ncccc3n3c(CN(CC4CC4)CC(F)(F)F)c(C(F)(F)F)nc23)c(C)c1 [Example 210, Cyclopropylmethyl-(2,2,2-trifluoro-ethyl)-[2-trifluoromethyl-8-(2,4,6-trimethyl-phenyl)-8H-1,3a,7,8-tetraaza-cyclopenta[α]inden-3-ylmethyl]-amine]

— patent US7125990B2, “Imidazolyl derivatives as corticotropin releasing factor inhibitors” (Bristol-Myers Squibb COmpany, priority 2001, dated 2006)
